Experiments:
[1] = test system: C-terminal domain (residues, 293–393); conditions: monomeric fragment versus tetrameric form; ref [50]; cited from earlier work
Excerpt: (§1) With a helix–loop–helix pattern, these proteins are site-specific and form homo and heterodimers. These proteins interact with copper, zinc, and calcium ions, and calcium-binding facilitates a variety of extracellular and intracellular governing consequences of these proteins. […] Further, it was also found to connect with the p53 tetrameriza ...

[2] = test system: MDM2 N- terminal domain (2–125); conditions: ref [52]; cited from earlier work
Excerpt: as §1

[3] = test system: p53 peptide (residues, 367–393); conditions: ref [49]; cited from earlier work
Excerpt: as §1

[4] = test system: p53 tetramerization domain (residues, 325–355); conditions: ref [49]; cited from earlier work
Excerpt: as §1

[5] = test system: p53 transactivation domain (residues, 1–57); conditions: fluorescence anisotropy; ref [50]; cited from earlier work
Excerpt: as §1

[6] = test system: phosphorylated p53 N-terminus; conditions: single-site phosphorylation, fluorescence anisotropy; ref [51]; cited from earlier work
Excerpt: as §1

[7] = HIV-TAT alone; ref [79]; cited from earlier work
Excerpt: [79] […] The (LLKK)3 imparts an amphiphilic α-helical conformation to the peptide that disrupts the cellular membranes. […] [81] Altogether it can be inferred that the TAT sequence has a very minimal effect to the confirmation of the conjugated partner under consideratio ...

[8] = test system: various cell lines including MCF-7; design: method as in PMID 19914216; conditions: ref [85], cited from earlier work
HeLa cells = conditions: N-terminal fluorescein tagged, even after five hours; ref [86]; cited from earlier work
Excerpt: [86] […] [85] […] [ ...

[9] = ref [77]; cited from earlier work
Excerpt: We selected residues from 76 to 92 (17 residues) for our peptide construction.

MDM2-p53 complex = experiment: HSQC-NMR competitive binding experiment; design: species or system human; conditions: unlabeled p53 added to 15N-labeled MDM2, 1:1, pH 7.2
Procedure: HSQC- NMR competitive binding experiment
All the experiments were carried out in the NMR buffer containing 20 mM Tris-HCl, 15 mM NaCl, 20 mM CaCl2, 20 mM DTT, 0.1% NaN3, and 10% D2O; pH 7.2.

MDM2 (17–125) = conditions: p53 (1–73), besides helix region (18–26); ref [70]; cited from earlier work
[10] = Stability of peptides in cells (inferred from WST-1 assay); conditions: deduced from WST-1 results after 48 hours of incubation
[11] = molecular target: T1, p53-TAD (residues 1-73), N-terminal domain of p53 (UniProt P04637 1-73); experiment: other fluorescence titration; tryptophan fluorescence of p53 (1-73), excitation 295 nm; Peptide 1 0 to 12.0 uM added to 2 uM p53; 20 mM Tris-HCl, 15 mM NaCl, 20 mM CaCl2, 20 mM DTT, 0.1% NaN3, pH 7.2; conditions: both partners purified
T1 construct: cleaved protein of 8.6 kDa; plasmid a gift of G. Daughdrill; Used unlabelled or 15N-labelled; also called p53 (1-73); p53 N-terminal domain; source: bacterial cells in M9 media, purified (Ni-NTA, thrombin digestion, Superdex 75)
T1 sequence (P04637 1-73): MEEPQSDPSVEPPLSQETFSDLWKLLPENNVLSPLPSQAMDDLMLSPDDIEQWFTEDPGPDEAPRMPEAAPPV

S100A1: human S100A1 protein produced in BL21 (DE3) E. coli [Peptide S100A1]
binding to p53 C-terminal domain (293–393) [1]: could bind to the monomeric fragment of the C-terminal domain (residues, 293–393) but unable to form a complex with the tetrameric form | association with MDM2 N-terminal domain (2–125) [2]: found to associate with the MDM2 N- terminal domain (2–125) and does not lead to the formation of a ternary complex with MDM2 and p53 | association with p53 peptide (367–393) [3]: found to associate with the p53 peptide (residues, 367–393) | interaction with p53 TET domain (325–355) [4]: only interacted with the TET domain when its oligomerization state was lowered (monomers or dimers) | binding to p53 transactivation domain (1–57) [5]: binding of S100A1 to the p53 transactivation domain (residues, 1–57) | affinity of phosphorylated p53 N-terminus for S100A1 [6]: increased affinity for S100A1

YGRKKRRQRRR [TAT peptide]
conformation by CD spectrum [7]: unstructured form | cytotoxicity of TAT peptide, above 5 μM ([8]; above 5 μM): 11–22% | cytotoxicity of TAT peptide, up to 5 μM ([8]; up to 5 μM): non-toxic | stability of TAT peptide (cytoplasmic fluorescence) (HeLa cells): quite stable | delivery of heterologous proteins [9]: cytoplasmic delivery of heterologous proteins which was independent of the cell type

p53 (1–73): p53-TAD (residues, 1–73)
effect on 15N labeled MDM2 HSQC peaks (MDM2-p53 complex): several ^15N labeled MDM2 peaks were shifted and/or disappeared | p53 regions able to bind to MDM2 (MDM2 (17–125)): nascent turns 1 (40–45) and 2 (49–54) are furthermore able to bind to MDM2

CC(C)C[C@H](NC(=O)[C@H](C)NC(=O)[C@H](C)NC(=O)[C@@H](NC(=O)[C@H](CC(C)C)NC(=O)[C@@H](NC(=O)[C@@H](NC(=O)[C@H](CCCNC(=N)N)NC(=O)[C@H](CCCNC(=N)N)NC(=O)[C@H](CCCNC(=N)N)NC(=O)[C@H](CCC(N)=O)NC(=O)[C@H](CCCNC(=N)N)NC(=O)[C@H](CCCNC(=N)N)NC(=O)[C@H](CCCCN)NC(=O)[C@H](CCCCN)NC(=O)[C@H](CCCNC(=N)N)NC(=O)CNC(=O)[C@@H](N)Cc1ccc(O)cc1)C(C)C)C(C)C)C(C)C)C(=O)N[C@H](C(=O)N[C@H](C(=O)N[C@@H](C)C(=O)N[C@@H](CS)C(=O)N[C@@H](CC(N)=O)C(=O)N[C@@H](CC(N)=O)C(=O)N[C@@H](Cc1ccccc1)C(=O)N[C@@H](Cc1ccccc1)C(=O)N[C@@H](Cc1c[nH]c2ccccc12)C(=O)N[C@@H](CCC(=O)O)C(=O)O)C(C)C)[C@@H](C)O [Peptide 1]
stability in cells [10]: quite stable

B1: Peptide 1 (HIV-TAT + S100A1 derived peptide) (peptide)
peptide: YGRKKRRQRRRVVLVAALTVACNNFFWE
notes: HIV-TAT cell-penetrating segment derived from the TAT protein of human immunodeficiency virus; S100A1, human, C-terminal residues 76 to 92 (17 residues); 28 residues; the TAT segment stands N-terminal of the S100A1 stretch; also called fusion peptide; source: synthetic peptide, bought: Kelowna International Scientific Inc., >= 95% purity
Kd [11]: ~0.59 µM

Reference: publication PMC7272100 (PLoS ONE, 2020)
